“Also recorded” adds a separate entry of the source.
What was measured:
[1] = tested on: human adult dermal microvascular endothelial cells (MVEC); assay: Tubule formation in human adult dermal microvascular endothelial cells; type: cell-based; settings: β3AR antagonist 1 μmol/L with CL 316,243 100 ng/ml
Method: (§1) Human umbilical vein endothelial cells (HUVECs; Lonza C2519AS, pooled source, Australia) were grown using standard cell culture conditions in endothelial cell growth medium (EGM Plus®, containing 2% fetal bovine serum, Lonza, Australia). All cells were regularly confirmed to be mycoplasma negative. Two different pooled source cell lines were used in experiments and all were used within passages 2-4. Human adult dermal microvascular endothelial cells were also obtained from Lonza (CC-2543, Lonza Australia) and cultured as above but using endothelial growth medium 2-MV bulletkit. Endothelial colony forming cells (ECFCs) were derived from the peripheral blood of participants in the BioHEART study. This registered study (ACTRN12618001322224) complies with the Declaration of Helsinki and the study protocol and design has been approved by the Northern Sydney Local Health District Human Research Ethics Committee (HREC/17/HAWKE/343). […]
(§2) Once they were ˜70% confluent, cells were re-suspended in diluted EGM Plus® (1:3) and plated on reduced-growth factor extracellular matrix (15 mg/ml, Cultrex, Trevigen, USA) at a density of 1.5×10^4 cells/cm^2. […] Cells were incubated in an EVOS FL Auto Imaging system for 16 hours and tubule formation recorded every hour. Optimal tube formation occurred at the 8-hour timepoint; tubule number at this point was quantified manually using NIH Image J software. […]

β3-AR = β3-AR (Homo sapiens, UniProt P13945); settings: cited from earlier work; for agonist activity at β3-AR: β1- and β2-AR antagonists; for affinity and potency at β3-AR: selective agonists
β3-AR, sequence (P13945 whole entry): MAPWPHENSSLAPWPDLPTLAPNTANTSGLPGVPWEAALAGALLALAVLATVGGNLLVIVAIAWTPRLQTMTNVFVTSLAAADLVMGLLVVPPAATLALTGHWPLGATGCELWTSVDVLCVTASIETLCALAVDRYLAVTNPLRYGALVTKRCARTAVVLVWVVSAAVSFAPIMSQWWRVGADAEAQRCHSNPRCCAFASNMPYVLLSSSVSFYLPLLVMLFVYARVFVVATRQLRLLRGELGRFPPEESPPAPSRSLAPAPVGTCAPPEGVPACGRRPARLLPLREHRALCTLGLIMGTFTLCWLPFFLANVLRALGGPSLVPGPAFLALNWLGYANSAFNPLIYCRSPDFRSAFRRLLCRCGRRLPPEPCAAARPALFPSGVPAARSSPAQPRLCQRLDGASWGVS

diabetic HMVECs = assay: Scratch migration assay in diabetic HMVECs with Mirabegron; type: cell-based, human; settings: 85 nM, 4.5 hours, vs control
Method: (§3) For assessing the effect of Mirabegron on cell migration: Human umbilical vein endothelial cells (HUVECs; Lonza, C2519AS) were cultured in Endothelial Cell Growth Media containing 2% fetal bovine serum (EGM2) (Lonza, CC-3162) at standard conditions of 37° C. and 5% C02 (SC). Human dermal microvascular diabetic and non-diabetic endothelial cells (db-HMVECs and HMVECs: Lonza, CC2930 and CC2543 respectively) were cultured in Microvascular Endothelial Growth Media containing 2% fetal bovine serum (FBS) (EGM-2MV) (Lonza, CC-3202) at ST. Cells were between passage 4 and 7 when used.
To investigate the potential for Mirabegron to improve migration by reversing oxidative stress, diabetic and non-diabetic HMVECs were used in a scratch migration assay. 85 nM of Mirabegron was used with a control on both cell types.

HUVECs [2] = assay: Scratch migration assay in HUVECs with Mirabegron; type: cell-based, human; settings: 0.85-850 nM, over 15 hours, between concentrations
Method: as §3
To first investigate whether the role that β3AR activation plays in endothelial cell migration was dose dependant, the inventors measured migration of HUVECs in media with multiple concentrations of Mirabegron (0.85, 8.5, 85 & 850 nM) using a scratch migration assay.

[3] = Topical lipogel on explanted skin, DESI-Mass spec detection; type: in vitro ADME, mouse; settings: lipogel applied to freshly explanted skin for 5.5 hrs
Source text: A lipogel comprising the β3AR agonist Mirabegron was applied to freshly explanted skin for 5.5 hrs. Skin was then snap frozen in liquid nitrogen and cryosectioned at 40 μum thickness.
DESI-Mass spec was then used to scan the tissue at 30 μm resolution. Tissue image was constructed using mass signal 284 which was presented in high quantity throughout the tissue. Mirabegron was detected using mass signal 397 and overlayed onto the tissue image. The same slide used for DESI-Mass spec was subsequently stained with H&E.

C57BL6 mice = assay: Splinted wound healing model in STZ-diabetic male mice; type: in vivo, mouse
Method: 8-week-old C57BL6 mice were purchased from Animal Resources Centre (Murdoch, WA) and acclimatised to the Kearns Facility over a 1-week period. Mice were group housed (5/cage) within a Physical Containment Level 2 laboratory and were allowed food and water ad libitum. After acclimatisation, 60 mice were weighed daily and given five consecutive daily intraperitoneal injections of Streptozotocin (STZ) solution (55 mg/kg/day) dissolved in sodium citrate (0.1 M) using a standard insulin needle (30 gauge). After the final injection, mice were weighed and blood glucose level (BGL) measured weekly by pricking the most distal point on the tail with a needle to obtain a blood drop, used with an AccuCheck BGL monitor. Mice became become diabetic over 4 weeks post-STZ, as confirmed with a consistent BGL of 15 mmol/L and if greater than 10% weight loss was observed, insulin was delivered via intraperitoneal injection (1 IU in saline). 4 mice were excluded due to severe weight loss during diabetes induction that exceeded ethical protocols. […] Wounds were measured daily for 12 days by removing opsite covering and using digital callipers to measure wound diameter across 3 axes which were averaged and used to calculate circular wound area. […] As such, wound data from 2 mice in topical group were not recorded following day 8 due to splint detachment. […]

HUVECs [4] = assay: Tubule formation in HUVECs on reduced growth factor extracellular matrix; type: cell-based, human; settings: L-NAME 300 μmol/L with CL 316,243
Method: as §1, §2

HUVECs [5] = assay: Cell migration by scratch assay in HUVECs (CL 316,243); type: cell-based, human; settings: L-NAME 300 μmol/L with CL 316,243

CCc1ccccc1OC[C@@H](O)CN[C@H]1CCCc2ccccc21.O=C(O)C(=O)O [SR 592230A]
effect on CL 316,243-induced tubule formation [1]: abolished

CC(C)(C)NCC(O)COc1cccc2c1CC(O)C(O)C2 (stereo not shown) [nadolol]
affinity at β3-AR (β3-AR; β-AR antagonists): atypically low affinity

CC(C)NCC(O)COc1cccc2[nH]ccc12 (stereo not shown) [pindolol]
agonist activity at β3-AR (β3-AR): partial agonist activity

Nc1nc(CC(=O)Nc2ccc(CCNC[C@H](O)c3ccccc3)cc2)cs1 [Mirabegron, 2-(2-Amino-1,3-thiazol-4-yl)-N-[4-(2-{[(2R)-2-hydroxy-2-phenylethyl]amino}ethyl)phenyl]acetamide]
migration of diabetic HMVECs (diabetic HMVECs): improved the migration; also recorded: seemed to improve the migration; also recorded: improves migration | migration of HUVECs (HUVECs [2]): No significant difference; also recorded: no impact | affinity and potency at β3-AR (β3-AR): high affinity and potency | absorption into skin tissue (DESI-Mass spec signal 397) [3]: detected in the tissue; also recorded: deliver through to the dermis | wound healing (wound closure over time) (C57BL6 mice; topical lipogel daily, 12 days, vs vehicle lipogel, p=0.009): Significant improvement | wound healing at day 2 (C57BL6 mice; topical, day 2, n=14, p=0.0238): significant improvement

O=C(Nc1ccc(C[C@@H]2CC[C@H]([C@H](O)c3ccccc3)N2)cc1)[C@@H]1CCc2nccc(=O)n21 [vibegron]
affinity and potency at β3-AR (β3-AR): high affinity and potency

Cc1cc(OCC(=O)O)c(C)cc1CCN[C@@H](C)[C@H](O)c1ccc(O)cc1 [ritobegron]
affinity and potency at β3-AR (β3-AR): high affinity and potency

COC(=O)[C@@H](N)CCCNC(=N)N[N+](=O)[O-] [L-NAME, Nω-nitro-L-arginine methyl ester]
effect on β3AR-stimulated tubule formation in HUVECs (HUVECs [4]): abolished | effect on β3AR-stimulated cell migration rate in HUVECs (HUVECs [5]): abolished

CC(C)(Cc1c[nH]c2ccccc12)NCC(O)COc1ccccc1C#N (stereo not shown) [bucindolol]
agonist activity at β3-AR (β3-AR): partial agonist activity

CC(C)(C)NCC(O)COc1cccc2[nH]c(=O)[nH]c12 (stereo not shown) [CGP12177A]
agonist activity at β3-AR (β3-AR): partial agonist activity

O=C(O)c1cccc(-c2cccc(NCCNC[C@H](O)c3cccc(Cl)c3)c2)c1 [solabegron]
affinity and potency at β3-AR (β3-AR): high affinity and potency

Source: patent US20240148701A1, “WOULD HEALING METHODS” (The University of Sydney, priority 2021, published 2024)
